Assay results: ChEMBL document CHEMBL4800729 (2021)

Legend:
Sus scrofa = organism: Sus scrofa; test: Inhibition of ATPase, Na+/K+, Heart at compound concentration of 10.0 uM in the Eurofins-Panlabs enzyme assay (Eurofins_assay_107710); design: substrate with concentration; details: Compound concentration 10.0 uM
[1] = biological target: Serine-protein kinase ATM (Homo sapiens) (UniProt Q13315); test: ATM(h) Millipore kinase panel; details: Compound concentration 1.0 uM
[2] = biological target: Calcium/calmodulin-dependent protein kinase type 1B (Homo sapiens) (UniProt Q6P2M8); test: CaMKIbeta(h) Millipore kinase panel; details: Compound concentration 1.0 uM
[3] = biological target: Cyclin-dependent kinase 4/cyclin D (Homo sapiens) (UniProt P11802+P24385+P30281+P30279); test: CDK4/cyclinD Millipore kinase panel; assay type: protein-complex assay; details: Compound concentration 1.0 uM
[4] = biological target: Cyclin-dependent kinase-like 1 (Homo sapiens) (UniProt Q00532); test: CDKL1(h) Millipore kinase panel; details: Compound concentration 1.0 uM
[5] = biological target: Cyclin-dependent kinase-like 2 (Homo sapiens) (UniProt Q92772); test: CDKL2(h) Millipore kinase panel; details: Compound concentration 1.0 uM
[6] = biological target: Casein kinase I isoform gamma-2 (Homo sapiens) (UniProt P78368); test: CK1gamma2(h) Millipore kinase panel; details: Compound concentration 1.0 uM
[7] = biological target: Dual specificity protein kinase CLK2 (Homo sapiens) (UniProt P49760); test: CLK2(h) Millipore kinase panel; details: Compound concentration 1.0 uM
[8] = biological target: Tyrosine-protein kinase CSK (Homo sapiens) (UniProt P41240); test: CSK(h) Millipore kinase panel; details: Compound concentration 1.0 uM
[9] = biological target: Serine/threonine-protein kinase DCLK2 (Homo sapiens) (UniProt Q8N568); test: DCAMKL2(h) Millipore kinase panel; details: Compound concentration 1.0 uM
[10] = biological target: Serine/threonine-protein kinase 17A (Homo sapiens) (UniProt Q9UEE5); test: DRAK1(h) Millipore kinase panel; details: Compound concentration 1.0 uM
[11] = biological target: Tyrosine-protein kinase Fgr (Homo sapiens) (UniProt P09769); test: Fgr(h) Millipore kinase panel; details: Compound concentration 1.0 uM
[12] = biological target: Rhodopsin kinase GRK7 (Homo sapiens) (UniProt Q8WTQ7); test: GRK7(h) Millipore kinase panel; details: Compound concentration 1.0 uM
[13] = biological target: Glycogen synthase kinase-3 beta (Homo sapiens) (UniProt P49841); test: GSK3beta(h) Millipore kinase panel; details: Compound concentration 1.0 uM
[14] = biological target: Inhibitor of nuclear factor kappa-B kinase subunit beta (Homo sapiens) (UniProt O14920); test: IKKbeta(h) Millipore kinase panel; details: Compound concentration 1.0 uM
[15] = biological target: Tyrosine-protein kinase JAK2 (Homo sapiens) (UniProt O60674); test: JAK2(h) Millipore kinase panel; details: Compound concentration 1.0 uM
[16] = biological target: LIM domain kinase 1 (Homo sapiens) (UniProt P53667); test: LIMK1(h) Millipore kinase panel; details: Compound concentration 1.0 uM
[17] = biological target: Mitogen-activated protein kinase kinase kinase 2 (Homo sapiens) (UniProt Q9Y2U5); test: MEKK2(h) Millipore kinase panel; details: Compound concentration 1.0 uM
[18] = biological target: Mitogen-activated protein kinase kinase kinase 10 (Homo sapiens) (UniProt Q02779); test: MLK2(h) Millipore kinase panel; details: Compound concentration 1.0 uM
[19] = biological target: Serine/threonine-protein kinase MRCK gamma (Homo sapiens) (UniProt Q6DT37); test: MRCKgamma(h) Millipore kinase panel; details: Compound concentration 1.0 uM
[20] = biological target: Serine/threonine-protein kinase OSR1 (Homo sapiens) (UniProt O95747); test: OSR1(h) Millipore kinase panel; details: Compound concentration 1.0 uM
[21] = biological target: Platelet-derived growth factor receptor alpha (Homo sapiens) (UniProt P16234); test: PDGFRalpha Millipore kinase panel; details: Compound concentration 1.0 uM
[22] = biological target: Proto-oncogene tyrosine-protein kinase receptor Ret (Homo sapiens) (UniProt P07949); test: Ret(h) Millipore kinase panel; details: Compound concentration 1.0 uM
[23] = biological target: Ribosomal protein S6 kinase alpha-2 (Homo sapiens) (UniProt Q15349); test: Rsk3(h) Millipore kinase panel; details: Compound concentration 1.0 uM
[24] = biological target: Serine/threonine-protein kinase 25 (Homo sapiens) (UniProt O00506); test: STK25(h) Millipore kinase panel; details: Compound concentration 1.0 uM
[25] = biological target: Wee1-like protein kinase (Homo sapiens) (UniProt P30291); test: WEE1(h) Millipore kinase panel; details: Compound concentration 1.0 uM
[26] = biological target: Cyclin-dependent kinase 14/Cyclin-Y (Homo sapiens) (UniProt O94921+Q8ND76); test: CDK14/cyclinY(h) Millipore kinase panel; assay type: protein-complex assay; details: Compound concentration 1.0 uM
[27] = biological target: CDK18/Cyclin Y (Homo sapiens) (UniProt Q07002+Q8ND76); test: CDK18/cyclinY(h) Millipore kinase panel; assay type: protein-complex assay; details: Compound concentration 1.0 uM
[28] = biological target: PI3K p110 beta/p85 alpha (Homo sapiens) (UniProt P27986+P42338); test: PI3 Kinase (p110b/p85a)(h) Millipore kinase panel; assay type: protein-complex assay; details: Compound concentration 1.0 uM
[29] = biological target: CDK7/Cyclin H/MNAT1 (Homo sapiens) (UniProt P51946+P50613+P51948); test: CDK7/cyclinH/MAT1(h) Millipore kinase panel; assay type: protein-complex assay; details: Compound concentration 1.0 uM
[30] = biological target: Histamine H3 receptor (Homo sapiens) (UniProt Q9Y5N1); details: Compound concentration 10.0 uM
[31] = biological target: Kappa-type opioid receptor (Homo sapiens) (UniProt P41145); details: Compound concentration 10.0 uM
[32] = biological target: T1, 5-hydroxytryptamine receptor 1A (Homo sapiens) (UniProt P08908); details: Compound concentration 10.0 uM
T1 sequence (whole entry): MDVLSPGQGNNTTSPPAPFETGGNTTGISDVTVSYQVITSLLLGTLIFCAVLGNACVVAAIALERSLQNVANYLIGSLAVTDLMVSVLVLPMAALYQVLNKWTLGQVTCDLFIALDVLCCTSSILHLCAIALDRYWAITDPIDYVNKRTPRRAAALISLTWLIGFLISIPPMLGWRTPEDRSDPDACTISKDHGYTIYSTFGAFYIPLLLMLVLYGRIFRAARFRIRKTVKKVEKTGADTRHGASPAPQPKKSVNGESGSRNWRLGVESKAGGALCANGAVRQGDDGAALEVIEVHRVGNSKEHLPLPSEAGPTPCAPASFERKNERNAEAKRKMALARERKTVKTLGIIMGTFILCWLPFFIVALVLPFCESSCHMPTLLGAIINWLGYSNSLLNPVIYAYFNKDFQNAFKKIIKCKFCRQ

[33] = biological target: Muscarinic acetylcholine receptor M4 (Homo sapiens) (UniProt P08173); details: Compound concentration 10.0 uM
Homo sapiens = organism: Homo sapiens; details: Compound concentration 10.0 uM
[34] = biological target: Progesterone receptor (Homo sapiens) (UniProt P06401); details: Compound concentration 10.0 uM

Measured: inhibition

Sequence of Inhibitor of nuclear factor kappa-B kinase subunit beta (Homo sapiens) (O14920 whole entry): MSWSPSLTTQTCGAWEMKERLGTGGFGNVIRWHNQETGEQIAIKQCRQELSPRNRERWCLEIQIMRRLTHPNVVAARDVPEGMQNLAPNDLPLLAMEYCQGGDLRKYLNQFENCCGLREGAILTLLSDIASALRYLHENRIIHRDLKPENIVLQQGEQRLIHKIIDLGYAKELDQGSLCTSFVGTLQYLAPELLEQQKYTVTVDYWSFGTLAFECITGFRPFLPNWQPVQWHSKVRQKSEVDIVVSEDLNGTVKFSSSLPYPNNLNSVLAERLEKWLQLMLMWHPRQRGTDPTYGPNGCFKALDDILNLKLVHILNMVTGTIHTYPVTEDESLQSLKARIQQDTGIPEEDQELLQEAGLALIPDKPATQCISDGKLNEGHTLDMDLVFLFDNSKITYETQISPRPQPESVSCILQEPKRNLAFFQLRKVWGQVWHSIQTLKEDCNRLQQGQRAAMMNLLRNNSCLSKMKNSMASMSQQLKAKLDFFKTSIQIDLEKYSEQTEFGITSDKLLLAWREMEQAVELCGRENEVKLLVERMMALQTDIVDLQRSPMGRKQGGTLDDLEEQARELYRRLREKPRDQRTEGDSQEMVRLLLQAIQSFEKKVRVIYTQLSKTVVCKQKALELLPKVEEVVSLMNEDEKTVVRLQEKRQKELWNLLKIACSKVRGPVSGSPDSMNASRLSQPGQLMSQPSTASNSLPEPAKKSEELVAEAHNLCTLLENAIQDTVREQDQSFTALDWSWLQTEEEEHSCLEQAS
Sequence of Platelet-derived growth factor receptor alpha (Homo sapiens) (P16234 whole entry): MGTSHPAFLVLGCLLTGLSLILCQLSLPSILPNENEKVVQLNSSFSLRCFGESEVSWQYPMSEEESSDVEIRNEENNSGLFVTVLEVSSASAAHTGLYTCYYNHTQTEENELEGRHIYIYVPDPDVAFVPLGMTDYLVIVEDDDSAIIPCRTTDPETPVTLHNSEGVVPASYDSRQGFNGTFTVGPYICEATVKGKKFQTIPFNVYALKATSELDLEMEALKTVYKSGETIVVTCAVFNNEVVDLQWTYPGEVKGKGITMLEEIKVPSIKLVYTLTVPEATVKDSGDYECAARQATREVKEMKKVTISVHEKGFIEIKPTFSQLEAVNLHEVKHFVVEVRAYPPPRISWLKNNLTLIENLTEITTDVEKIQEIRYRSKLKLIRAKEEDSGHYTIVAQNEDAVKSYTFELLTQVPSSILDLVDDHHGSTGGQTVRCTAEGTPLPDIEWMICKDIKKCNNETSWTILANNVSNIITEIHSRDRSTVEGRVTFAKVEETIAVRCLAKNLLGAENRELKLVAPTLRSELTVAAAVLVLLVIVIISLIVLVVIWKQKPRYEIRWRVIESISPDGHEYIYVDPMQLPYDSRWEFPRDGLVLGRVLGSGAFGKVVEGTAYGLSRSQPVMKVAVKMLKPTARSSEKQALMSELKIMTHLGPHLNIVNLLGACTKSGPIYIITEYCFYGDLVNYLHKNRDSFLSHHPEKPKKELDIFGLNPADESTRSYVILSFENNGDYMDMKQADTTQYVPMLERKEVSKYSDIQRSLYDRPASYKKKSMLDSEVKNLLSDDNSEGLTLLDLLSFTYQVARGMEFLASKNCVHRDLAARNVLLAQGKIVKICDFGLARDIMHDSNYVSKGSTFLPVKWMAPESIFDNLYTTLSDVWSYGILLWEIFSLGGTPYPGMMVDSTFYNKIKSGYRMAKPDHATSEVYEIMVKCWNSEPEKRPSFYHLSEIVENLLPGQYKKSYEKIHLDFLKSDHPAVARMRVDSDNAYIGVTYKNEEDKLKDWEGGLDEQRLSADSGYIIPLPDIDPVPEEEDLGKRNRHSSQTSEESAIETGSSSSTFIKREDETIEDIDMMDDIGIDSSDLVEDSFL
Sequence of Serine/threonine-protein kinase OSR1 (Homo sapiens) (O95747 2-527 limits assumed): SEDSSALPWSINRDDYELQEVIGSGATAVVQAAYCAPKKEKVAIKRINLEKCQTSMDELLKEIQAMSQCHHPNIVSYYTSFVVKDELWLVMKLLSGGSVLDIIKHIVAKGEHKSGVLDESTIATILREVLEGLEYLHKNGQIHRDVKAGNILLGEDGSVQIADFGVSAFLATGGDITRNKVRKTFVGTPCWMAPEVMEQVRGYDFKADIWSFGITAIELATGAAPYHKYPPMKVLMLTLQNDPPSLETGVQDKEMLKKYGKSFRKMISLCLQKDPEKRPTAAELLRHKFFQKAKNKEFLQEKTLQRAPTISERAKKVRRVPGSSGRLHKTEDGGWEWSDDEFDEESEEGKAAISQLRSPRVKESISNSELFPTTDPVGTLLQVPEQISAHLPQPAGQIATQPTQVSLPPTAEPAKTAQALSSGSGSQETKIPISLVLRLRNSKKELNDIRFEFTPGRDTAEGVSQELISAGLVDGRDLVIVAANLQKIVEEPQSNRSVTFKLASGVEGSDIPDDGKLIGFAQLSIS
Sequence of Kappa-type opioid receptor (Homo sapiens) (P41145 whole entry): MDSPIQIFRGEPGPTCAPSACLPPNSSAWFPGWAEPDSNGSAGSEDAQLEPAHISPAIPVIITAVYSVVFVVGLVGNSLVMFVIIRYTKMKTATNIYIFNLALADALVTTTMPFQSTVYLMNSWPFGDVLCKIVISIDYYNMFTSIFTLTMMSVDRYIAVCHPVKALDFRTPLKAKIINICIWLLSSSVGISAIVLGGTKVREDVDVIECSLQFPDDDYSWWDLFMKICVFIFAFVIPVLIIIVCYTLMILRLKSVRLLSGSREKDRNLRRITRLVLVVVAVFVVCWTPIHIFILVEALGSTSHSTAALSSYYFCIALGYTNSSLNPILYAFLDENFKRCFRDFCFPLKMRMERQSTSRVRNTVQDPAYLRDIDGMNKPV
Sequence of Serine/threonine-protein kinase DCLK2 (Homo sapiens) (Q8N568 whole entry): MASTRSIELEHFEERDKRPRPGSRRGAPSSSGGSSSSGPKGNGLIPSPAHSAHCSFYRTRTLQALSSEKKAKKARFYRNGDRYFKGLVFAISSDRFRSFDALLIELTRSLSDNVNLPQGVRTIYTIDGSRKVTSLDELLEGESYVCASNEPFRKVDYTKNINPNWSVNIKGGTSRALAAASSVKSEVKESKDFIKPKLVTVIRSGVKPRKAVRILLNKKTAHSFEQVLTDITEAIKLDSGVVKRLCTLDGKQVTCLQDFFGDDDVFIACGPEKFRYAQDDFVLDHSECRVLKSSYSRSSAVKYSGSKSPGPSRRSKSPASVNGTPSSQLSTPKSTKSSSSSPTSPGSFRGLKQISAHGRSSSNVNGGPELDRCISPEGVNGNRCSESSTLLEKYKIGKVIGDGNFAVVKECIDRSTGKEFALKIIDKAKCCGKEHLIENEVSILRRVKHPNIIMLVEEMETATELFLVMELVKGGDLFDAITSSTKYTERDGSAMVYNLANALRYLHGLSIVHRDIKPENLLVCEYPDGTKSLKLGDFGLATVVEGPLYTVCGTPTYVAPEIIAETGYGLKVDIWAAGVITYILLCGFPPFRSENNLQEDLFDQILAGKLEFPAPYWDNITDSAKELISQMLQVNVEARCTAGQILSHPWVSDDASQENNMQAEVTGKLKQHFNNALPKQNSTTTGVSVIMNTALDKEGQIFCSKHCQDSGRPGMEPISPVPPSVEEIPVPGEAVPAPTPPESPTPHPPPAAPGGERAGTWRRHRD
Sequence of Serine/threonine-protein kinase MRCK gamma (Homo sapiens) (Q6DT37 whole entry): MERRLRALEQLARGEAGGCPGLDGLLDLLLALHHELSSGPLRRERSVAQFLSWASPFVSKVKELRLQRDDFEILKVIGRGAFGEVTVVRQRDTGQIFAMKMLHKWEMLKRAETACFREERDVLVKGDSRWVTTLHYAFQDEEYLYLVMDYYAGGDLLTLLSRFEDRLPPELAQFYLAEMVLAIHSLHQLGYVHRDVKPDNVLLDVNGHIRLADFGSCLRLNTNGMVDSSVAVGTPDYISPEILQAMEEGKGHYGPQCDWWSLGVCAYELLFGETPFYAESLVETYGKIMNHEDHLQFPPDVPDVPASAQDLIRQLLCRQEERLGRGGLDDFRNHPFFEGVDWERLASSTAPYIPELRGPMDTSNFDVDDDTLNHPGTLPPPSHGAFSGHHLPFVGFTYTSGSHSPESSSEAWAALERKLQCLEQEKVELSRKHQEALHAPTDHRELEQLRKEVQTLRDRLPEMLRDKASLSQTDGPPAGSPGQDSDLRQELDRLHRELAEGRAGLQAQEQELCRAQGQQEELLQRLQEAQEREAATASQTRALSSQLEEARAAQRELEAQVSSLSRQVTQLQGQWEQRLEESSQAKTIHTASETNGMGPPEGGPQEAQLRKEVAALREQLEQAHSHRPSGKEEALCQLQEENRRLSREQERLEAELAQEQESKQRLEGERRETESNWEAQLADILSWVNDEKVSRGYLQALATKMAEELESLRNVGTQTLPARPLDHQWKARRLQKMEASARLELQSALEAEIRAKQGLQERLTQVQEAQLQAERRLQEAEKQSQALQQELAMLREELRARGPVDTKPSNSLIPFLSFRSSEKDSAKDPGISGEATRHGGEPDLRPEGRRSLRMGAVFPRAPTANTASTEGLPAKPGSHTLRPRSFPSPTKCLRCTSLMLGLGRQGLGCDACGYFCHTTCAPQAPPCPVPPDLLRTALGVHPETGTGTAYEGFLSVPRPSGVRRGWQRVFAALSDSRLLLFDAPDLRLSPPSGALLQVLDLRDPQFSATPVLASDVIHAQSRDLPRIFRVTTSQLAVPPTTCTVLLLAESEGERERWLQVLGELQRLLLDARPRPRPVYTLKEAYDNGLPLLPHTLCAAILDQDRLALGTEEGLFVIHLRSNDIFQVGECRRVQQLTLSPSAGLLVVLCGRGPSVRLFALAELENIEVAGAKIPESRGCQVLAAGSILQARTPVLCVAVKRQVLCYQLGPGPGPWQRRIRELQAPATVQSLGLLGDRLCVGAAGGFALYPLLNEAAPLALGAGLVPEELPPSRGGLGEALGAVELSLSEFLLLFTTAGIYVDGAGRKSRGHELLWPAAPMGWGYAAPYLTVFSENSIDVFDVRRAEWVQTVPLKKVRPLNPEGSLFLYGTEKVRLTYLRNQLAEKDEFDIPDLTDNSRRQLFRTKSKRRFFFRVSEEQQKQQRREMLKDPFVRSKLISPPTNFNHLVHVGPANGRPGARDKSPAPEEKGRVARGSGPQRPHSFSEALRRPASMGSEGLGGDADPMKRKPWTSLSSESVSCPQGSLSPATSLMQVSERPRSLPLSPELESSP

CC[C@@H](Nc1c(C#N)c(-c2ccc(-c3cccc(C)c3F)cc2)nc2cnccc12)C(=O)O [BAY-091]
inactive: Sus scrofa 20% | [1] 0.32% | [2] -7.99% | [3] 11.3% | [4] 4.02% | [5] 19.4% | [6] 12.4% | [7] 0.07% | [8] 6.94% | [9] -2.01% | [10] 9.65% | [11] 5.05% | [12] 2.75% | [13] -0.05% | [14] 2.85% | [15] -5.62% | [16] 8.64% | [17] 12.8% | [18] 18% | [19] 5.46% | [20] -3.86% | [21] 9.33% | [22] -3.56% | [23] 10.9% | [24] 3.01% | [25] 5.28% | [26] 18.1% | [27] 10.6% | [28] 0.43% | [29] 0.3% | [30] 3% | [31] -2% | [32] 27% | [33] 6% | Homo sapiens -8% | [34] 29%
